Reference: US20060025380A1, “Formulations for non-parenteral use including hydrophobic cyclodextrins” (deCODE Chemistry Inc, priority 2004, published 2006)

Assay: Solubility of drug in aqueous cyclodextrin complexation media (dissolved drug by HPLC)
Type: physicochemical
Description: General procedure: Zero to 40% w/v of various cyclodextrins were dissolved in 0.25% (w/v) PVP polymer, 50 mM MgCl2 solutions with 50 to 150 mM of various amino acids, resulting in an aqueous complexation media. An excess amount of drug was added to the aqueous complexation media, with the suspension formed then sonicated for 60 minutes at 75° C. (some drugs can also be heated at 121° C. for 20 minutes in autoclave). After an equilibrium period, the drug suspensions were filtered and the amount of dissolved drug was determined by HPLC.
To provide further information as to a specific example, production of the third camptothecin formulation (with proline) listed below is described. 20% w/v of randomly methylated β-cyclodextrin was dissolved in 0.25% (w/v) CMC polymer, 50 mM MgCl2 solutions with 50 mM of Proline and 0.02M HCl (buffer). The drug concentration was 0.526±0.009 mg/ml.
To provide further information as to a specific example, production of the first trichlocarban formulation (with lysine) listed below is described. 20% w/v of randomly methlyated β-cyclodextrin was dissolved in 0.25% (w/v) PVP polymer, 50 mM MgCl2 solutions with 50 mM of L-Lysine hydrochloride. The drug concentration was 5.72±0.07 mg/ml.

Compound | Camptotechin (CPT) 20% RMβCD (50 mM Proline, 0.25% (w/v) CMC polymer, 50 mM MgCl2, 0.02M HCl) | Camptotechin (CPT) 20% RMβCD (50 mM Proline, 0.25% (w/v) CMC polymer, 50 mM MgCl2, 0.02M HCl, listed as camptothecin) | Camptotechin (CPT) 20% RMβCD (Cysteine) | Camptotechin (CPT) 20% RMβCD (Lysine) | Camptotechin (CPT) 20% RMβCD (No amino acid) | Camptotechin (CPT) 20% RMβCD (Tryptophan) | Camptotechin (CPT) 40% HPβCD (40% HPβCD (first column so headed, c2), Lysine) | Camptotechin (CPT) 40% HPβCD (40% HPβCD (second column so headed, c3), Lysine) | Trichlocarban (TCC) solubility, CD + poly | Trichlocarban (TCC) solubility, CD no AA | solubility of TCC with adipic acid | solubility of TCC with poly-lysine
CC[C@@]1(O)C(=O)OCc2c1cc1n(c2=O)Cc2cc3ccccc3nc2-1 [Camptotechin, camptothecin] | 0.526 ± 0.009 mg/mL | 0.526 ± 0.009 mg/mL | 0.334 ± 0.025 mg/mL | 0.285 ± 0.010 mg/mL | 0.228 ± 0.009 mg/mL | 0.375 ± 0.002 mg/mL | 0.493 ± 0.015 mg/mL | 0.439 ± 0.022 mg/mL | – | – | – | –
O=C(Nc1ccc(Cl)cc1)Nc1ccc(Cl)c(Cl)c1 [Trichlocarban, trichlocarban] | – | – | – | – | – | – | – | – | 2300 ± 240 µg/mL | 2050 ± 150 µg/mL | 5190 ± 210 µg/mL | 4810 ± 210 µg/mL
